Assay [1] deals with T1, TNKS2 ARC4 (Homo sapiens, UniProt Q9H2K2).
T1 construct: ankyrin repeat cluster 4 domain; FRET: 6xHis-mCerulean (CFP) fusion; DSF, NMR, crystal: MBP and His tag cleaved by TEV, residues 487-649 printed for crystal; E. coli BL21(DE3)
T1 sequence (Q9H2K2 487-649): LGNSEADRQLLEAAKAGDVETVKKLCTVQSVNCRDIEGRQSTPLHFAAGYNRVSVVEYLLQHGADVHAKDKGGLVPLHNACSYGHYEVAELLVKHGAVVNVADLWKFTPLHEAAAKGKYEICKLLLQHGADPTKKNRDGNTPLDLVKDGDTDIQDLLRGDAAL
Also on record: DSF thermal shift of TNKS2 ARC4, stabilization over DMSO control. The note with it: binder. The text has this: Given the notable stabilization of the pyrrolone-based compounds from the Commercials Diversity collection, we decided to focus on their common scaffold for compound optimization. Pyrrolone is indeed a versatile moiety that is largely employed for the design of compounds with a variety of biological effects.[55] The nine primary hits were acquired from commercial suppliers, they underwent quality control, additional DSF validation and determination of potency through FRET-based IC50 measurements (Table 1). All the tested compounds include a benzodioxane moiety (R[1]), a [compound left out] group with substitutions in the para position (R[2]), and an R[3] group with an aliphatic character and a tertiary amine. […] In addition, all molecules, except for 7, have IC50 values below 100 µM. Among the nine molecules, 1 performed the best in terms of stabilization of TNKS2 ARC4 and potency. […] In the same position, the presence of a hydrophobic methyl group (3, 4), other halogen substituents (5) and alkoxy groups (6–9) is also tolerated, even if not optimal. […] A SAR investigation was conducted with purchased and synthesized analogues of 1 through FRET-based potency measurements and DSF assay with TNKS2 ARC4 (Table 2, Table S2). All the compounds commercially acquired underwent quality control. […] Changes to the length of the aliphatic chain at R[3] greatly impacts both potency and protein stabilization. […] The diethylamino-based substituent at R[3] […] Compounds 25 and 26 further indicate that the presence of tertiary amine at R[3] is not necessary to achieve binding. […] 5 Figure S2. DSF assay results for validation of primary hits identified in the EU-OPENSCREEN Commercials Diversity Library. (A) and (B) show DSF assay validation measurements of TNKS2 ARC4 with primary hits from the Commercial Diversity Library. Compounds are tested at 100 μM. They are named after their EU-OPENSCREEN identity codes and the identities are available for consultation on ECBD. 1,2 (A) and (B) show results from two independent experiments. For each experiment, each compound was tested with a single measurement, while controls (TNKS2 ARC4 with 100 μM optimized peptide, TNKS2 ARC4 with 100 μM DMSO) are studied in at least four replicates and errors are shown. Moreover, stabilization over the control (TNKS2 ARC4 with DMSO) is indicated (ΔTm °C). […] It was not possible to measure the melting curve of TNKS2 ARC4 in presence of EOS21552, EOS54043, EOS54043.

Assay [2] addresses T1, TNKS2 ARC4. The assay is described as follows: FRET displacement of YFP-REAGDGEE peptide from CFP-ARC. The assay is classed as binding.

Consider `CCN(CC)CCCN1C(=O)C(O)=C(C(=O)c2ccc3ccccc3c2)C1c1ccc(O)cc1` (centres unmarked) [S6], for which the “ΔTm ± SD (°C)” value in assay [1] is -0.06 ± 0.04 °C. The IC50 in assay [2] is more than 1000 µM.

Take `CCN(CC)CCCN1C(=O)C(O)=C(C(=O)c2ccc(OC)c(OC)c2)C1c1ccc(O)cc1` (centres unmarked) [S7]: the “ΔTm ± SD (°C)” value in assay [1] amounted to 0.04 ± 0.03 °C. This compound also registered a concentration for half-maximal inhibition (IC50) in assay [2] of more than 1000 µM.

On to `CCN(CC)CCCN1C(=O)C(O)=C(C(=O)c2ccc3c(c2)OCCO3)C1c1ccc(N)cc1` (centres unmarked) [S9], for which the “ΔTm ± SD (°C)” value in assay [1] was found to be 2.78 ± 0.18 °C. Further, the concentration for half-maximal inhibition (IC50) in assay [2] was found to be 17 µM.

Consider `CCN(CC)CCCCN1C(=O)C(O)=C(C(=O)c2ccc3c(c2)OCCO3)C1c1ccc(O)cc1` (centres unmarked) [S12], for which the “ΔTm ± SD (°C)” value in assay [1] was determined as 1.97 ± 0.35 °C. In assay [2], the IC50 is 74 µM.

With `CCN(CC)CCCN1C(=O)C(O)=C(C(=O)c2ccc3c(c2)OCCO3)C1c1ccc(F)cc1` (centres unmarked) [compound 2, 2], the “ΔTm ± SD (°C)” value in assay [1] was 2.38 ± 0.52 °C. In assay [2], this compound displayed a half-inhibitory concentration (IC50) of 32 µM.

For `Cc1ccc(C2C(C(=O)c3ccc4c(c3)OCCO4)=C(O)C(=O)N2CCCN(C)C)cc1` (centres unmarked) [compound 3, 3], the “ΔTm ± SD (°C)” value in assay [1] turned out to be 2.34 ± 0.30 °C. In addition, the IC50 in assay [2] was 51 µM.

On to `CN(C)CCCN1C(=O)C(O)=C(C(=O)c2ccc3c(c2)OCCO3)C1c1ccc(Br)cc1` (centres unmarked) [compound 5, 5], for which, in assay [1], the “ΔTm ± SD (°C)” value is 1.49 ± 0.16 °C. In assay [2], this compound came in with a half-maximal inhibitory concentration (IC50) of 70 µM.

On to `CCOc1ccc(C2C(C(=O)c3ccc4c(c3)OCCO4)=C(O)C(=O)N2CCCN2CCOCC2)cc1` (centres unmarked) [compound 7, 7], for which, in assay [1], the “ΔTm ± SD (°C)” value came out at 1.42 ± 0.16 °C. The compound also registered an IC50 in assay [2] of 117 µM.

For `CCCCOc1ccc(C2C(C(=O)c3ccc4c(c3)OCCO4)=C(O)C(=O)N2CCCN(C)C)cc1` (centres unmarked) [compound 8, 8], the “ΔTm ± SD (°C)” value in assay [1] was found to be 1.65 ± 0.24 °C. The same compound registered a concentration for half-maximal inhibition (IC50) in assay [2] of 69 µM.

For the compound `CCCCOc1ccc(C2C(C(=O)c3ccc4c(c3)OCCO4)=C(O)C(=O)N2CCCN2CCOCC2)cc1` (centres unmarked) [compound 9, 9], the “ΔTm ± SD (°C)” value in assay [1] was 1.40 ± 0.18 °C. The same compound yielded a half-inhibitory concentration (IC50) in assay [2] of 81 µM.

Turning to `CCN(CC)CCCN1C(=O)C(O)=C(C(=O)c2ccc3c(c2)CC(C)O3)C1c1ccc(O)cc1` (centres unmarked) [compound 10, 10], in assay [1], the “ΔTm ± SD (°C)” value amounted to 2.67 ± 0.46 °C. The same compound had a half-maximal inhibitory concentration (IC50) in assay [2] of 31 µM.

In the case of `CCN(CC)CCCN1C(=O)C(O)=C(C(=O)c2ccc(OCc3ccc(C)cc3)cc2)C1c1ccc(O)cc1` (centres unmarked) [compound 11, 11], the “ΔTm ± SD (°C)” value in assay [1] was determined as 0.07 ± 0.07 °C. For the same compound, the 50% inhibitory concentration (IC50) in assay [2] came out at 552 µM.

Turning to `CCN(CC)CCCN1C(=O)C(O)=C(C(=O)c2ccc3c(c2)OCCO3)C1c1cccc(OC)c1` (centres unmarked) [compound 12, 12], the “ΔTm ± SD (°C)” value in assay [1] amounted to 4.03 ± 0.39 °C. Also, the IC50 in assay [2] is 11 µM.

Take `CCN(CC)CCCN1C(=O)C(O)=C(C(=O)c2ccc3c(c2)OCCO3)C1c1cccc(O)c1` (centres unmarked) [compound 13, 13]: the “ΔTm ± SD (°C)” value in assay [1] was found to be 4.82 ± 0.49 °C. In addition, the half-inhibitory concentration (IC50) in assay [2] came out at 24 µM.

With `CCN(CC)CCN1C(=O)C(O)=C(C(=O)c2ccc3c(c2)OCCO3)C1c1cccc(O)c1` (centres unmarked) [compound 14, 14], the “ΔTm ± SD (°C)” value in assay [1] was found to be 1.40 ± 0.36 °C. In assay [2], this compound displayed a half-maximal inhibitory concentration (IC50) of 139 µM.

Take `COCCCN1C(=O)C(O)=C(C(=O)c2ccc3c(c2)OCCO3)C1c1cccc(O)c1` (centres unmarked) [compound 15, 15]: the “ΔTm ± SD (°C)” value in assay [1] is 0.78 ± 0.43 °C. The IC50 in assay [2] was found to be 368 µM.

As usually defined, the IC50 is the concentration needed to halve the response being measured. Higher therefore signals weaker potency.

Values taken from paper doi:10.1101/2025.03.31.646301v1, “Discovery of Tankyrase scaffolding inhibitor specifically targeting the ARC4 peptide binding domain” (biorxiv, 2025).
